Source: ChEMBL document CHEMBL1148862, “Evaluation of the anti-hepatitis C virus effect of novel potent, selective, and orally bioavailable JNK and VEGFR kinase inhibitors” (Bioorg Med Chem Lett, 2007)

Columns and labels:
[1] = Cytotoxicity against Huh7 cells by luciferase assay; assay type: cell-based, Huh-7; conditions: human
[2] = Cytotoxicity against MT4 cells by luciferase assay; assay type: cell-based; conditions: human
Hepatitis C virus = test: Antiviral activity against HCV in Huh7-Rep cells by luciferase assay; assay type: functional, organism-based, Hepacivirus hominis

SMILES: Fc1ccc(Cl)cc1-c1nc(Nc2ccncc2)c2nccnc2n1
- CC50 [1]: > 25 µM
- CC50 [2]: > 25 µM
- EC50 (Hepatitis C virus): 0.89 µM

SMILES: COc1cnc(-c2cc(Cl)ccc2F)nc1Nc1ccncc1C(=O)NCCCN1CCOCC1
- CC50 [1]: 17.1 µM
- CC50 [2]: 15.4 µM
- EC50 (Hepatitis C virus): 2.5 µM

SMILES: COc1cnc(-c2cc(Cl)ccc2F)nc1Nc1ccncc1C(=O)NCCN
- CC50 [1]: 5.5 µM
- CC50 [2]: 4.7 µM
- EC50 (Hepatitis C virus): 3.6 µM

SMILES: Fc1ccc(Br)cc1-c1nc(Nc2ccncc2)c2nccnc2n1
- CC50 [1]: > 32 µM
- CC50 [2]: > 32 µM
- EC50 (Hepatitis C virus): 0.35 µM

SMILES: Fc1ccc(Br)cc1-c1nc(N(CCc2ccccc2)c2ccncc2)c2nccnc2n1
- CC50 [1]: 22.2 µM
- CC50 [2]: 11 µM
- EC50 (Hepatitis C virus): 1.96 µM

SMILES: COc1cnc(-c2cc(Cl)ccc2F)nc1Nc1ccncc1C(=O)NCCCN(C)C
- CC50 [1]: 15.8 µM
- CC50 [2]: 5 µM
- EC50 (Hepatitis C virus): 0.59 µM

SMILES: Fc1ccc(Br)cc1-c1nc(Nc2ccccc2)c2nccnc2n1
- CC50 [1]: > 32 µM
- CC50 [2]: > 32 µM
- EC50 (Hepatitis C virus): 4 µM

SMILES: Cc1cnccc1Nc1nc(-c2cc(Cl)ccc2F)nc2nccnc12
- CC50 [1]: > 32 µM
- CC50 [2]: > 32 µM
- EC50 (Hepatitis C virus): 2 µM

SMILES: COc1cnc(-c2cc(Cl)ccc2F)nc1Nc1ccncc1C(=O)NCC(F)(F)F
- CC50 [1]: > 32 µM
- CC50 [2]: > 32 µM
- EC50 (Hepatitis C virus): 1.2 µM

SMILES: Oc1nc(-c2cc(Cl)ccc2F)nc2nccnc12
- CC50 [1]: > 25 µM
- CC50 [2]: > 25 µM
- EC50 (Hepatitis C virus): > 50 µM

SMILES: Fc1ccccc1-c1nc(Nc2ccncc2)c2nccnc2n1
- CC50 [1]: > 25 µM
- CC50 [2]: > 25 µM
- EC50 (Hepatitis C virus): 9.95 µM

SMILES: COc1cnc(-c2cc(Cl)ccc2F)nc1Nc1ccncc1C(=O)NCCNCC(C)O (stereo not given)
- CC50 [1]: > 32 µM
- CC50 [2]: > 32 µM
- EC50 (Hepatitis C virus): 9.6 µM

SMILES: CN(c1ccncc1)c1nc(-c2cc(Br)ccc2F)nc2nccnc12
- CC50 [1]: > 32 µM
- CC50 [2]: > 32 µM
- EC50 (Hepatitis C virus): 3.65 µM

SMILES: COc1cnc(-c2cc(Cl)ccc2F)nc1Nc1ccncc1C(=O)NCCCN1CCCCC1C (stereo not given)
- CC50 [1]: 3.6 µM
- CC50 [2]: 3.3 µM
- EC50 (Hepatitis C virus): 0.55 µM

SMILES: COc1cnc(-c2cc(Cl)ccc2F)nc1Nc1ccncc1C(=O)NC[C@H]1CCCO1
- CC50 [1]: > 32 µM
- CC50 [2]: > 32 µM
- EC50 (Hepatitis C virus): 2.6 µM
